Structures can show the parent of a compound that is named as a salt.
target: chymotrypsin (Bos taurus, UniProt P00766); assay: Chymotrypsin inhibitive activity (method of Muramatsu et al., acetyl-L-tyrosine ethyl ester substrate, Hestrin Method); format: biochemical; settings: pH 8.0 tris-hydrochloric acid buffer, 10 minutes preincubation, 30° C., 30 minutes, absorbance at 530 nm, read-out: Chymotrypsin inhibitive activity [50% inhibition concentration (M)]
Protocol: A solution prepared by mixing 0.1 ml of a dimethylsulfoxide solution containing a compound to be tested, 0.1 ml of water and 0.1 ml of a buffer solution containing 10 ug/ml of chymotrypsin (0.1M tris-hydrochloric acid buffer solution, pH 8.0) was incubated for 10 minutes by the method of Muramatsu et al. [see The Journal of Biochemistry, 62, 408 (1967)]. 0.2 ml of a buffer solution containing 25 mM of an acetyl-L-tyrosine ethyl ester was mixed with the above-prepared solution and reacted at 30° C. for 30 minutes. The amount of the remaining substrate was determined by causing the same to develop color by the Hestrin Method and measuring the absorbance at 530 nm. For comparative purposes, use was made of tosylphenylalanine chloromethyl ketone which was known as a chymotrypsin inhibitor (Comparative Compound I).

Structure (SMILES)	IC50
CC(C)N1CCN(C(=O)c2ccc(OC(=O)Cc3cccc4c3CCCC4)cc2)CC1 [Example 1, 1-Isopropyl-4-[4-(5,6,7,8-tetraphydronaphthalene-1-acetyloxy)benzoyl]piperazine.hydrochloride]	3e-06 M
CC(C)N1CCN(C(=O)c2ccc(OC(=O)C=C3c4ccccc4-c4ccccc43)cc2)CC1 [Example 2, 1-Isopropyl-4-[4-(9-fluorenylideneacetyloxy)benzoyl]piperazine]	1e-07 M
CC(C)N1CCN(C(=O)c2ccc(OC(=O)Cc3cc4ccccc4s3)cc2)CC1 [Example 3]	9e-07 M
CC(C)N1CCN(C(=O)c2ccc(OC(=O)C3CCc4ccccc43)cc2)CC1 (stereo not shown) [Example 4]	5e-06 M
COc1ccc2c(c1)C(CC(=O)Oc1ccc(C(=O)N3CCN(C(C)C)CC3)cc1)=CC2 [Example 9]	1e-06 M
CC1CCC(C(=O)Oc2ccc(C(=O)N3CCN(C(C)C)CC3)cc2)c2ccccc21 (stereo not shown) [Example 15]	8e-07 M
CC(C)N1CCN(C(=O)c2ccc(OC(=O)C3CCCc4cc(Cl)ccc43)cc2)CC1 (stereo not shown) [Example 17]	8e-07 M
Cc1ccc2c(c1)CCCC2C(=O)Oc1ccc(C(=O)N2CCN(C(C)C)CC2)cc1 (stereo not shown) [Example 18]	6e-07 M
CC(C)N1CCN(C(=O)c2ccc(OC(=O)C3=Cc4ccccc4CC3)cc2)CC1 [Example 20]	5e-06 M
CC(C)N1CCN(C(=O)c2ccc(OC(=O)C3C=CCc4cc(Cl)ccc43)cc2)CC1 (stereo not shown) [Example 21]	9e-06 M
CC(C)N1CCN(C(=O)c2ccc(OC(=O)CC3=CCCc4ccccc43)cc2)CC1 [Example 22]	3e-06 M
CC(C)N1CCN(C(=O)c2ccc(OC(=O)Cc3cccc4ccccc34)cc2)CC1 [Example 24]	5e-07 M
CC(C)N1CCN(C(=O)c2ccc(OC(=O)COc3ccc4ccccc4c3)cc2)CC1 [Example 30]	9e-06 M
CC(C)N1CCN(C(=O)c2ccc(OC(=O)CCc3ccc4ccccc4c3)cc2)CC1 [Example 32]	7e-06 M
CC(C)N1CCN(C(=O)c2ccc(OC(=O)CC3c4ccccc4-c4ccccc43)cc2)CC1 [Example 40]	1e-06 M
COc1ccc2c(c1)C(C(=O)Oc1ccc(C(=O)N3CCN(C)CC3)cc1)CCC2 (stereo not shown) [Example 65, 1-Methyl-4-[4-(7-methoxyl-1,2,3,4-tetrahydro-1-naphtoyloxy)benzoyl]piperazine.methanesulfonate]	8e-07 M
O=C(Oc1ccc(C(=O)N2CCN(C3CCCCC3)CC2)cc1)C1CCCc2ccccc21 (stereo not shown) [Example 66]	9e-07 M
CC(C)N1CCN(C(=O)c2ccc(OC(=O)C3CCCc4ccccc43)cc2)CC1 (stereo not shown) [Example 67]	8e-07 M
CCN1CCN(C(=O)c2ccc(OC(=O)C3CCCc4ccccc43)cc2)CC1 (stereo not shown) [Example 68]	9e-07 M

— US4898876A, “Benzoylpiperazine esters and a process for their production” (Kowa Co., Ltd., priority 1982, dated 1990)
